Results as given in ChEMBL document CHEMBL4420081, “Novel benzylamino substituted quinazolines and derivatives as sos1 inhibitors” (2018).
The source made the active and inactive calls. The calls are words filed in the database; no cut-off is given here.

Assays:
NCI-H2122 [1] = assay: Growth inhibition of human NCI-H2122 cells grown under 3D anchorage-independent soft-agar conditions at 1110 nM incubated for 14 days by alamar blue dye based assay relative to control; format: functional; details: NCI-H2122, 336 h, read-out: GI
NCI-H2122 [2] = assay: Growth inhibition of human NCI-H2122 cells grown under 3D anchorage-independent soft-agar conditions at 3330 nM incubated for 14 days by alamar blue dye based assay relative to control; format: functional; details: NCI-H2122, 336 h, read-out: GI
NCI-H2122 [3] = assay: Growth inhibition of human NCI-H2122 cells grown under 3D anchorage-independent soft-agar conditions at 164 nM incubated for 14 days by alamar blue dye based assay relative to control; format: functional; details: NCI-H2122, 336 h, read-out: GI
NCI-H2122 [4] = assay: Growth inhibition of human NCI-H2122 cells grown under 3D anchorage-independent soft-agar conditions at 370 nM incubated for 14 days by alamar blue dye based assay relative to control; format: functional; details: NCI-H2122, 336 h, read-out: GI
NCI-H2122 [5] = assay: Growth inhibition of human NCI-H2122 cells grown under 3D anchorage-independent soft-agar conditions at 123 nM incubated for 14 days by alamar blue dye based assay relative to control; format: functional; details: NCI-H2122, 336 h, read-out: GI
PC-9 [6] = assay: Growth inhibition of human PC9 cells grown under 3D anchorage-independent soft-agar conditions at 5.56 nM incubated for 14 days by alamar blue dye based assay relative to control; format: functional; details: PC-9, 336 h, read-out: GI
PC-9 [7] = assay: Growth inhibition of human PC9 cells grown under 3D anchorage-independent soft-agar conditions at 16.7 nM incubated for 14 days by alamar blue dye based assay relative to control; format: functional; details: PC-9, 336 h, read-out: GI
PC-9 [8] = assay: Growth inhibition of human PC9 cells grown under 3D anchorage-independent soft-agar conditions at 0.617 nM incubated for 14 days by alamar blue dye based assay relative to control; format: functional; details: PC-9, 336 h, read-out: GI
PC-9 [9] = assay: Growth inhibition of human PC9 cells grown under 3D anchorage-independent soft-agar conditions at 50 nM incubated for 14 days by alamar blue dye based assay relative to control; format: functional; details: PC-9, 336 h, read-out: GI
PC-9 [10] = assay: Growth inhibition of human PC9 cells grown under 3D anchorage-independent soft-agar conditions at 1.85 nM incubated for 14 days by alamar blue dye based assay relative to control; format: functional; details: PC-9, 336 h, read-out: GI
SW900 [11] = assay: Growth inhibition of human SW900 cells grown under 3D anchorage-independent soft-agar conditions at 3330 nM incubated for 14 days by alamar blue dye based assay relative to control; format: functional; details: SW900, 336 h, read-out: GI
NCI-H1792 [12] = assay: Growth inhibition of human NCI-H1792 cells grown under 3D anchorage-independent soft-agar conditions at 370 nM incubated for 14 days by alamar blue dye based assay relative to control; format: functional; details: NCI-H1792, 336 h, read-out: GI
SW900 [13] = assay: Growth inhibition of human SW900 cells grown under 3D anchorage-independent soft-agar conditions at 1110 nM incubated for 14 days by alamar blue dye based assay relative to control; format: functional; details: SW900, 336 h, read-out: GI
SW900 [14] = assay: Growth inhibition of human SW900 cells grown under 3D anchorage-independent soft-agar conditions at 370 nM incubated for 14 days by alamar blue dye based assay relative to control; format: functional; details: SW900, 336 h, read-out: GI
NCI-H1792 [15] = assay: Growth inhibition of human NCI-H1792 cells grown under 3D anchorage-independent soft-agar conditions at 123 nM incubated for 14 days by alamar blue dye based assay relative to control; format: functional; details: NCI-H1792, 336 h, read-out: GI
NCI-H1792 [16] = assay: Growth inhibition of human NCI-H1792 cells grown under 3D anchorage-independent soft-agar conditions at 3330 nM incubated for 14 days by alamar blue dye based assay relative to control; format: functional; details: NCI-H1792, 336 h, read-out: GI
NCI-H1792 [17] = assay: Growth inhibition of human NCI-H1792 cells grown under 3D anchorage-independent soft-agar conditions at 164 nM incubated for 14 days by alamar blue dye based assay relative to control; format: functional; details: NCI-H1792, 336 h, read-out: GI
SW900 [18] = assay: Growth inhibition of human SW900 cells grown under 3D anchorage-independent soft-agar conditions at 123 nM incubated for 14 days by alamar blue dye based assay relative to control; format: functional; details: SW900, 336 h, read-out: GI
SW900 [19] = assay: Growth inhibition of human SW900 cells grown under 3D anchorage-independent soft-agar conditions at 164 nM incubated for 14 days by alamar blue dye based assay relative to control; format: functional; details: SW900, 336 h, read-out: GI
NCI-H1792 [20] = assay: Growth inhibition of human NCI-H1792 cells grown under 3D anchorage-independent soft-agar conditions at 1110 nM incubated for 14 days by alamar blue dye based assay relative to control; format: functional; details: NCI-H1792, 336 h, read-out: GI
NCI-H1792 [21] = assay: Growth inhibition of human NCI-H1792 cells grown under 3D anchorage-independent soft-agar conditions at 11.1 nM incubated for 14 days by alamar blue dye based assay relative to control; format: functional; details: NCI-H1792, 336 h, read-out: GI
A549 [22] = assay: Growth inhibition of human A549 cells grown under 3D anchorage-independent soft-agar conditions at 11.1 nM incubated for 14 days by alamar blue dye based assay relative to control; format: functional; details: A549, 336 h, read-out: GI
A549 [23] = assay: Growth inhibition of human A549 cells grown under 3D anchorage-independent soft-agar conditions at 3.7 nM incubated for 14 days by alamar blue dye based assay relative to control; format: functional; details: A549, 336 h, read-out: GI
NCI-H1792 [24] = assay: Growth inhibition of human NCI-H1792 cells grown under 3D anchorage-independent soft-agar conditions at 3.7 nM incubated for 14 days by alamar blue dye based assay relative to control; format: functional; details: NCI-H1792, 336 h, read-out: GI
NCI-H1792 [25] = assay: Growth inhibition of human NCI-H1792 cells grown under 3D anchorage-independent soft-agar conditions at 1.23 nM incubated for 14 days by alamar blue dye based assay relative to control; format: functional; details: NCI-H1792, 336 h, read-out: GI
A549 [26] = assay: Growth inhibition of human A549 cells grown under 3D anchorage-independent soft-agar conditions at 100 nM incubated for 14 days by alamar blue dye based assay relative to control; format: functional; details: A549, 336 h, read-out: GI
A549 [27] = assay: Growth inhibition of human A549 cells grown under 3D anchorage-independent soft-agar conditions at 1.23 nM incubated for 14 days by alamar blue dye based assay relative to control; format: functional; details: A549, 336 h, read-out: GI
NCI-H1792 [28] = assay: Growth inhibition of human NCI-H1792 cells grown under 3D anchorage-independent soft-agar conditions at 100 nM incubated for 14 days by alamar blue dye based assay relative to control; format: functional; details: NCI-H1792, 336 h, read-out: GI
MIA PaCa-2 = assay: Antitumor activity against human MIAPaCa2 cells grown under 3D anchorage-independent soft-agar conditions at xenografted in BomTacNMRI-Foxn1 nu mouse assessed as inhibition of tumor regression at 10 mg/kg, iv dosed in q7d regime relative to control; format: functional, organism-based
A549 [29] = assay: Growth inhibition of human A549 cells grown under 3D anchorage-independent soft-agar conditions at 33.3 nM incubated for 14 days by alamar blue dye based assay relative to control; format: functional; details: A549, 336 h, read-out: GI
NCI-H1792 [30] = assay: Growth inhibition of human NCI-H1792 cells grown under 3D anchorage-independent soft-agar conditions at 33.3 nM incubated for 14 days by alamar blue dye based assay relative to control; format: functional; details: NCI-H1792, 336 h, read-out: GI
A549 [31] = assay: Growth inhibition of human A549 cells grown under 3D anchorage-independent soft-agar conditions at 164 nM incubated for 14 days by alamar blue dye based assay relative to control; format: functional; details: A549, 336 h, read-out: GI
A549 [32] = assay: Growth inhibition of human A549 cells grown under 3D anchorage-independent soft-agar conditions at 123 nM incubated for 14 days by alamar blue dye based assay relative to control; format: functional; details: A549, 336 h, read-out: GI
A549 [33] = assay: Growth inhibition of human A549 cells grown under 3D anchorage-independent soft-agar conditions at 1110 nM incubated for 14 days by alamar blue dye based assay relative to control; format: functional; details: A549, 336 h, read-out: GI
A549 [34] = assay: Growth inhibition of human A549 cells grown under 3D anchorage-independent soft-agar conditions at 3330 nM incubated for 14 days by alamar blue dye based assay relative to control; format: functional; details: A549, 336 h, read-out: GI
A549 [35] = assay: Growth inhibition of human A549 cells grown under 3D anchorage-independent soft-agar conditions at 370 nM incubated for 14 days by alamar blue dye based assay relative to control; format: functional; details: A549, 336 h, read-out: GI

SMILES: CCN1CCN(Cc2ccc(Nc3ncc(F)c(-c4cc(F)c5nc(C)n(C(C)C)c5c4)n3)nc2)CC1 [ABEMACICLIB]
- inhibition of growth at 1.11 µM (NCI-H2122 [1]): 91%
- inhibition of growth at 3.33 µM (NCI-H2122 [2]): 81%
- inhibition of growth at 0.164 µM (NCI-H2122 [3]): 103%
- inhibition of growth at 0.37 µM (NCI-H2122 [4]): 73%
- inhibition of growth at 0.123 µM (NCI-H2122 [5]): 10%

SMILES: C#Cc1cccc(Nc2ncnc3cc(OCCOC)c(OCCOC)cc23)c1 [ERLOTINIB]
- inhibition of growth at 0.00556 µM (PC-9 [6]): 49%
- inhibition of growth at 0.0167 µM (PC-9 [7]): 147%
- inhibition of growth at 0.000617 µM (PC-9 [8]): 0%
- inhibition of growth at 0.05 µM (PC-9 [9]): 199%
- inhibition of growth at 0.00185 µM (PC-9 [10]): 12%

SMILES: COC(=O)c1ccc2c(c1)NC(=O)/C2=C(\Nc1ccc(N(C)C(=O)CN2CCN(C)CC2)cc1)c1ccccc1 [NINTEDANIB]
- inhibition of growth at 3.33 µM (SW900 [11]): 19%
- inhibition of growth at 0.37 µM (NCI-H1792 [12]): 7%
- inhibition of growth at 1.11 µM (SW900 [13]): -18%
- inhibition of growth at 0.37 µM (SW900 [14]): -37%
- inhibition of growth at 0.123 µM (NCI-H1792 [15]): 1%
- inhibition of growth at 3.33 µM (NCI-H1792 [16]): 86%
- inhibition of growth at 0.164 µM (NCI-H1792 [17]): 186%
- inhibition of growth at 0.123 µM (SW900 [18]): -39%
- inhibition of growth at 0.164 µM (SW900 [19]): 199%
- inhibition of growth at 1.11 µM (NCI-H1792 [20]): 26%

SMILES: CC(=O)O[C@H]1C(=O)[C@@]2(C)[C@H]([C@H](OC(=O)c3ccccc3)[C@]3(O)C[C@H](OC(=O)[C@H](O)[C@@H](NC(=O)c4ccccc4)c4ccccc4)C(C)=C1C3(C)C)[C@]1(OC(C)=O)CO[C@@H]1C[C@@H]2O [PACLITAXEL]
- inhibition of growth at 0.0111 µM (NCI-H1792 [21]): 66%
- inhibition of growth at 0.0111 µM (A549 [22]): 86%
- inhibition of growth at 0.0037 µM (A549 [23]): 54%
- inhibition of growth at 0.0037 µM (NCI-H1792 [24]): 19%
- inhibition of growth at 0.00123 µM (NCI-H1792 [25]): 7%
- inhibition of growth at 0.1 µM (A549 [26]): 114%
- inhibition of growth at 0.00123 µM (A549 [27]): 12%
- inhibition of growth at 0.1 µM (NCI-H1792 [28]): 183%
- inhibition (MIA PaCa-2): inactive
- inhibition of growth at 0.0333 µM (A549 [29]): 97%
- inhibition of growth at 0.0333 µM (NCI-H1792 [30]): 96%

SMILES: COc1cc(F)c(F)c(Nc2ccc(I)cc2F)c1NS(=O)(=O)C1(C[C@H](O)CO)CC1 [REFAMETINIB]
- inhibition of growth at 0.164 µM (A549 [31]): 212%
- inhibition of growth at 0.123 µM (A549 [32]): 5%
- inhibition of growth at 1.11 µM (A549 [33]): 75%
- inhibition of growth at 3.33 µM (A549 [34]): 209%
- inhibition of growth at 0.37 µM (A549 [35]): 11%
